Data from US20250188075A1, “SUBSTITUTED HETEROCYCLIC CSNK1 INHIBITORS” (The Broad Institute, Inc., priority 2022, published 2025).

Experiments:
human CSNK1G3 = human CSNK1G3 (Homo sapiens (Human), UniProt Q9Y6M4); experiment: CSNK1G3 assay (ADP-Glo); type: biochemical; settings: median, read-out: CSNK1G IC50 [mol/l] (median)
Procedure: CSNK1G3-inhibitory activity of compounds of the present invention in presence of 1 μM adenosine-tri-phosphate (ATP) was quantified employing the CSNK1G3 assay as described in the following paragraphs. In essence, the enzyme activity is measured by quantification of the adenosine-di-phosphate (ADP), which is generated as a co-product of the enzyme reaction, via the “ADP-Glo™ Kinase Assay” kit from the company Promega. This detection system works as follows: In a first step the ATP not consumed in the kinase reaction is quantitatively converted to CAMP employing an adenylate cyclase (“ADP-Glo-reagent”), then the adenylate cyclase is stopped and the ADP generated in the kinase reaction converted to ATP which generates in a luciferase-based reaction a glow-luminescence signal (“Kinase Detection Reagent”).
(§1) Recombinant fusion protein of N-terminal Glutathion-S-Transferase (GST) and full-length human CSNK1G3, expressed by baculovirus infected insect cells and purified via Glutathion affinity chromatography, was purchased from Life Technologies (product no. PV3838) and used as enzyme. As substrate for the kinase reaction the biotinylated peptide biotin-Ahx-KRRRAL-pS-VASLPGL (C-terminus in amide form) was used which can be purchased e.g. from the company Biosyntan (Berlin-Buch, Germany).
For the assay 50 nl of a 100 fold concentrated solution of the test compound in DMSO was pipetted into a white 1536-well microtiter plate (Greiner Bio-One, Frickenhausen, Germany), 2 μL of a solution of CSNK1G3 in aqueous assay buffer [50 mM HEPES pH 7.5, 10% (v/v) glycerol, 10 mM MgCl2, 50 mM NaCl, 1 mM dithiothreitol, 0.01% (w/v) bovine serum albumin, 0.01% (v/v) Triton X-100] were added and the mixture was incubated for 15 min at 22° C. to allow pre-binding of the test compounds to the enzyme before the start of the kinase reaction. Then the kinase reaction was started by the addition of 3 μL of a solution of ATP ([…]=>final conc. in the 5 μL assay volume is 1 M) and peptide substrate (50 μM=>final conc. in the 5 μL assay volume is 30 μM) in assay buffer and the resulting mixture was incubated for a reaction time of 30 min at 22° C. The concentration of CSNK1G3 was adjusted depending of the activity of the enzyme lot and was chosen appropriate to have the assay in the linear range, a typical concentration is about 0.06 ng/μL. The reaction was stopped by the addition of 2.5 μL of “ADP-Glo-reagent” (1:1.5 fold diluted with water) and the resulting mixture was incubated at 22° C. for 1 h to convert the ATP not consumed in the kinase reaction completely to CAMP. Subsequently 2.5 μL of the “kinase detection reagent” (1.2 fold more concentrated than recommended by the producer) were added, the resulting mixture was incubated at 22° C. for 1 h and then the luminescence measured with a suitable measurement instrument (e.g. Viewlux™ from Perkin-Elmer). The amount of emitted light was taken as a measure for the amount of ADP generated and thereby for the activity of the CSNK1G3.
(§2) The data were normalised (enzyme reaction without inhibitor=0% inhibition, all other assay components but no enzyme=100% inhibition).

human CSNK1A1 = human CSNK1A1 (Homo sapiens (Human), UniProt P48729); experiment: CSNK1A1 high ATP assay (ADP-Glo, 1 mM ATP); type: biochemical; settings: median, read-out: CSNK1A1 High ATP assay IC50 [mol/l] (median)
Procedure: CSNK1A1-inhibitory activity of compounds of the present invention in presence of 1 mM adenosine-tri-phosphate (ATP) was quantified employing the CSNK1A1-high-ATP-assay as described in the following paragraphs. In essence, the enzyme activity is measured by quantification of the adenosine-di-phosphate (ADP), which is generated as a co-product of the enzyme reaction, via the “ADP-Glo™ Kinase Assay” kit from the company Promega. This detection system works as follows: In a first step the ATP not consumed in the kinase reaction is quantitatively converted to CAMP employing an adenylate cyclase (“ADP-Glo-reagent”), then the adenylate cyclase is stopped and the ADP generated in the kinase reaction converted to ATP which generates in a luciferase-based reaction a glow-luminescence signal (“Kinase Detection Reagent”).
as §1, with “CSNK1A1,” for “CSNK1G3,”, “PV4174)” for “PV3838)”
For the assay 50 nl of a 100 fold concentrated solution of the test compound in DMSO was pipetted into a white low volume 384-well microtiter plate (Greiner Bio-One, Frickenhausen, Germany), 2 μL of a solution of CSNK1A1 in aqueous assay buffer [50 mM HEPES pH 7.5, 10% (v/v) glycerol, 10 mM MgCl2, 50 mM NaCl, 1 mM dithiothreitol, 0.01% (w/v) bovine serum albumin, 0.01% (v/v) Triton X-100] were added and the mixture was incubated for 15 min at 22° C. to allow pre-binding of the test compounds to the enzyme before the start of the kinase reaction. Then the kinase reaction was started by the addition of 3 μL of a solution of ATP (1.67 mM=>final conc. in the 5 μL assay volume is 1 mM) and peptide substrate (167 μM=>final conc. in the 5 μL assay volume is 100 μM) in assay buffer and the resulting mixture was incubated for a reaction time of 30 min at 22° C. The concentration of CSNK1A1 was adjusted depending of the activity of the enzyme lot and was chosen appropriate to have the assay in the linear range, a typical concentration is about 0.4 ng/μL. The reaction was stopped by the addition of 2.5 μL of “ADP-Glo-reagent” (1:1.5 fold diluted with water) and the resulting mixture was incubated at 22° C. for 1 h to convert the ATP not consumed in the kinase reaction completely to CAMP. Subsequently 2.5 μL of the “kinase detection reagent” (1.2 fold more concentrated than recommended by the producer) were added, the resulting mixture was incubated at 22° C. for 1 h and then the luminescence measured with a suitable measurement instrument (e.g. Viewlux™ from Perkin-Elmer). The amount of emitted light was taken as a measure for the amount of ADP generated and thereby for the activity of the CSNK1A1.
as §2

human CSNK1G3, sequence (Q9Y6M4 whole entry): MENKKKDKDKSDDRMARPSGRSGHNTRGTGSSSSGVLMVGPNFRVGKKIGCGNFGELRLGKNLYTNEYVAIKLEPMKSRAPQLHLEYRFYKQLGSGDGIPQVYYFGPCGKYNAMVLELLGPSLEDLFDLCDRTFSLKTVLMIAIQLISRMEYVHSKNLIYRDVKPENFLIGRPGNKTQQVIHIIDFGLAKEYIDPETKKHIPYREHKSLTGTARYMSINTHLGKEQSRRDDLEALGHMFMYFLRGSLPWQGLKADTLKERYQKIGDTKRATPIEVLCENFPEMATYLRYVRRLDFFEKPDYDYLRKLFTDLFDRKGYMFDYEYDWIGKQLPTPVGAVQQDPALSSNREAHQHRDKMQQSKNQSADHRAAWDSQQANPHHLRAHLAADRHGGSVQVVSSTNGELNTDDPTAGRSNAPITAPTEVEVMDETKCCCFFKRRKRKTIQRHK
human CSNK1A1, sequence (P48729 whole entry): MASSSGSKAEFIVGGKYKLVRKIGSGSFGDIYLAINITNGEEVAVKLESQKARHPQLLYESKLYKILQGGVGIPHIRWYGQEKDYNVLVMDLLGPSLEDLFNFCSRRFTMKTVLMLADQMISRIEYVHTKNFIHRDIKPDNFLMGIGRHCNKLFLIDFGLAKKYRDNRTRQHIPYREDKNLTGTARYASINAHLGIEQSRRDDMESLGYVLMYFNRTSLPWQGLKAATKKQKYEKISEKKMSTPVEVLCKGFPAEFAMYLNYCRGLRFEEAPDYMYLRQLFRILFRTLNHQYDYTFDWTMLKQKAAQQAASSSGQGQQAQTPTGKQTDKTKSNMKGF

`O=C(Cc1cnc2ccccn12)Nc1cc(-c2[nH]c3cccnc3c2-c2ccccn2)ccn1` [Example 1, 2-imidazo[1,2-a]pyridin-3-yl-N-[4-[3-(2-pyridyl)-^1H-pyrrolo[3,2-b]pyridin-2-yl]-2-pyridyl]acetamide] was tested, and the IC50 (human CSNK1G3) was 71.7 nM and the IC50 (human CSNK1A1) was 38.5 nM.

`Cn1cc(CC(=O)Nc2cc(-c3[nH]c4cccnc4c3-c3ccccn3)ccn2)cn1` [Example 2, 2-(1-methylpyrazol-4-yl)-N-[4-[3-(2-pyridyl)-^1H-pyrrolo[3,2-b]pyridin-2-yl]-2-pyridyl]acetamide] gave an IC50 (human CSNK1G3) of 102 nM and an IC50 (human CSNK1A1) of 31.6 nM.

`Cc1nc(CC(=O)Nc2cc(-c3[nH]c4cccnc4c3-c3ccccn3)ccn2)cs1` [Example 3, 2-(2-methylthiazol-4-yl)-N-[4-[3-(2-pyridyl)-^1H-pyrrolo[3,2-b]pyridin-2-yl]-2-pyridyl]acetamide] showed an IC50 (human CSNK1G3) of 39.1 nM and an IC50 (human CSNK1A1) of 30.8 nM.

`Cn1cnc(CC(=O)Nc2cc(-c3[nH]c4cccnc4c3-c3ccccn3)ccn2)c1` [Example 5, 2-(1-methylimidazol-4-yl)-N-[4-[3-(2-pyridyl)-^1H-pyrrolo[3,2-b]pyridin-2-yl]-2-pyridyl]acetamide] showed an IC50 (human CSNK1G3) of 74.5 nM and an IC50 (human CSNK1A1) of 589 nM.

With `O=C(Cc1cnc2ccccc2n1)Nc1cc(-c2[nH]c3cccnc3c2-c2ccccn2)ccn1` [Example 6, N-[4-[3-(2-pyridyl)-^1H-pyrrolo[3,2-b]pyridin-2-yl]-2-pyridyl]-2-quinoxalin-2-yl-acetamide] the IC50 (human CSNK1G3) was 7.89 nM and the IC50 (human CSNK1A1) was 6.06 nM.

`Cc1nn(C)cc1CC(=O)Nc1cc(-c2[nH]c3cccnc3c2-c2ccccn2)ccn1` [Example 9, 2-(1,3-dimethylpyrazol-4-yl)-N-[4-[3-(2-pyridyl)-^1H-pyrrolo[3,2-b]pyridin-2-yl]-2-pyridyl]acetamide] showed an IC50 (human CSNK1G3) of 51.2 nM.

For `O=C(Cc1ccon1)Nc1cc(-c2[nH]c3cccnc3c2-c2ccccn2)ccn1` [Example 10, 2-isoxazol-3-yl-N-[4-[3-(2-pyridyl)-^1H-pyrrolo[3,2-b]pyridin-2-yl]-2-pyridyl]acetamide], the IC50 (human CSNK1G3) was 33 nM.

`Cc1ocnc1CC(=O)Nc1cc(-c2[nH]c3cccnc3c2-c2ccccn2)ccn1` [Example 11, 2-(5-methyloxazol-4-yl)-N-[4-[3-(2-pyridyl)-^1H-pyrrolo[3,2-b]pyridin-2-yl]-2-pyridyl]acetamide] showed an IC50 (human CSNK1G3) of 120 nM.

`Cc1noc(C)c1CC(=O)Nc1cc(-c2[nH]c3cccnc3c2-c2ccccn2)ccn1` [Example 12, 2-(3,5-dimethylisoxazol-4-yl)-N-[4-[3-(2-pyridyl)-^1H-pyrrolo[3,2-b]pyridin-2-yl]-2-pyridyl]acetamide] showed an IC50 (human CSNK1G3) of 62.6 nM and an IC50 (human CSNK1A1) of 66.9 nM.

In the case of `Cc1cc(CC(=O)Nc2cc(-c3[nH]c4cccnc4c3-c3ccccn3)ccn2)on1` [Example 13, 2-(3-methylisoxazol-5-yl)-N-[4-[3-(2-pyridyl)-^1H-pyrrolo[3,2-b]pyridin-2-yl]-2-pyridyl]acetamide], the IC50 (human CSNK1G3) is reported as 28.6 nM and the IC50 (human CSNK1A1) is reported as 41.3 nM.

`Cc1cc(CC(=O)Nc2cc(-c3[nH]c4cccnc4c3-c3ccccn3)ccn2)n(C)n1` [Example 14] gave an IC50 (human CSNK1G3) of 35.4 nM and an IC50 (human CSNK1A1) of 30.6 nM.

`O=C(Cc1cc2ccccn2n1)Nc1cc(-c2[nH]c3cccnc3c2-c2ccccn2)ccn1` [Example 15, 2-pyrazolo[1,5-a]pyridin-2-yl-N-[4-[3-(2-pyridyl)-^1H-pyrrolo[3,2-b]pyridin-2-yl]-2-pyridyl]acetamide] showed an IC50 (human CSNK1G3) of 10.3 nM and an IC50 (human CSNK1A1) of 24.2 nM.

For `Cc1cc(CC(=O)Nc2cc(-c3[nH]c4cccnc4c3-c3ccccn3)ccn2)nn1C` [Example 16, 2-(1,5-dimethylpyrazol-3-yl)-N-[4-[3-(2-pyridyl)-^1H-pyrrolo[3,2-b]pyridin-2-yl]-2-pyridyl]acetamide], the IC50 (human CSNK1G3) was 31.7 nM and the IC50 (human CSNK1A1) was 70.8 nM.

`Cc1nn(C)c(C)c1CC(=O)Nc1cc(-c2[nH]c3cccnc3c2-c2ccccn2)ccn1` [Example 17, N-[4-[3-(2-pyridyl)-^1H-pyrrolo[3,2-b]pyridin-2-yl]-2-pyridyl]-2-(1,3,5-trimethylpyrazol-4-yl)acetamide] gave an IC50 (human CSNK1G3) of 68.2 nM and an IC50 (human CSNK1A1) of 124 nM.

Work on `Cc1nc(C)c(CC(=O)Nc2cc(-c3[nH]c4cccnc4c3-c3ccccn3)ccn2)s1` [Example 18, 2-(2,4-dimethylthiazol-5-yl)-N-[4-[3-(2-pyridyl)-^1H-pyrrolo[3,2-b]pyridin-2-yl]-2-pyridyl]acetamide] yielded an IC50 (human CSNK1G3) of 15.4 nM and an IC50 (human CSNK1A1) of 14.1 nM.

`Cn1cc(C(CC(F)F)C(=O)Nc2cc(-c3[nH]c4cccnc4c3-c3ccccn3)ccn2)cn1` (centres unmarked) [Example 19, 4,4-difluoro-2-(1-methylpyrazol-4-yl)-N-[4-[3-(2-pyridyl)-^1H-pyrrolo[3,2-b]pyridin-2-yl]-2-pyridyl]butanamide] was tested, and the IC50 (human CSNK1G3) was 62.7 nM and the IC50 (human CSNK1A1) was 291 nM.

For `O=C(Cc1ccn(CC(F)(F)F)n1)Nc1cc(-c2[nH]c3cccnc3c2-c2ccccn2)ccn1` [Example 20, N-[4-[3-(2-pyridyl)-^1H-pyrrolo[3,2-b]pyridin-2-yl]-2-pyridyl]-2-[1-(2,2,2-trifluoroethyl)pyrazol-3-yl]acetamide], the IC50 (human CSNK1G3) was 14.8 nM and the IC50 (human CSNK1A1) was 98.7 nM.

`Cc1ncc(CC(=O)Nc2cc(-c3[nH]c4cccnc4c3-c3ccccn3)ccn2)o1` [Example 24, 2-(2-methyloxazol-5-yl)-N-[4-[3-(2-pyridyl)-^1H-pyrrolo[3,2-b]pyridin-2-yl]-2-pyridyl]acetamide] showed an IC50 (human CSNK1G3) of 39.9 nM.

With `Cc1nc(CC(=O)Nc2cc(-c3[nH]c4cccnc4c3-c3ccccn3)ccn2)co1` [Example 25, 2-(2-methyloxazol-4-yl)-N-[4-[3-(2-pyridyl)-^1H-pyrrolo[3,2-b]pyridin-2-yl]-2-pyridyl]acetamide] the IC50 (human CSNK1G3) was 64.4 nM.

Work on `CC(C)n1ccc(CC(=O)Nc2cc(-c3[nH]c4cccnc4c3-c3ccccn3)ccn2)n1` [Example 28, 2-(1-isopropylpyrazol-3-yl)-N-[4-[3-(2-pyridyl)-^1H-pyrrolo[3,2-b]pyridin-2-yl]-2-pyridyl]acetamide] yielded an IC50 (human CSNK1G3) of 20.4 nM.

`Cc1nocc1CC(=O)Nc1cc(-c2[nH]c3cccnc3c2-c2ccccn2)ccn1` [Example 30, 2-(3-methylisoxazol-4-yl)-N-[4-[3-(2-pyridyl)-^1H-pyrrolo[3,2-b]pyridin-2-yl]-2-pyridyl]acetamide] was tested, and the IC50 (human CSNK1G3) was 68.9 nM.
